The target in one data set is T1, IL-23R (Homo sapiens, UniProt Q5VWK5).
T1 construct: host or cells: HEK293
T1 sequence (Q5VWK5 24-629): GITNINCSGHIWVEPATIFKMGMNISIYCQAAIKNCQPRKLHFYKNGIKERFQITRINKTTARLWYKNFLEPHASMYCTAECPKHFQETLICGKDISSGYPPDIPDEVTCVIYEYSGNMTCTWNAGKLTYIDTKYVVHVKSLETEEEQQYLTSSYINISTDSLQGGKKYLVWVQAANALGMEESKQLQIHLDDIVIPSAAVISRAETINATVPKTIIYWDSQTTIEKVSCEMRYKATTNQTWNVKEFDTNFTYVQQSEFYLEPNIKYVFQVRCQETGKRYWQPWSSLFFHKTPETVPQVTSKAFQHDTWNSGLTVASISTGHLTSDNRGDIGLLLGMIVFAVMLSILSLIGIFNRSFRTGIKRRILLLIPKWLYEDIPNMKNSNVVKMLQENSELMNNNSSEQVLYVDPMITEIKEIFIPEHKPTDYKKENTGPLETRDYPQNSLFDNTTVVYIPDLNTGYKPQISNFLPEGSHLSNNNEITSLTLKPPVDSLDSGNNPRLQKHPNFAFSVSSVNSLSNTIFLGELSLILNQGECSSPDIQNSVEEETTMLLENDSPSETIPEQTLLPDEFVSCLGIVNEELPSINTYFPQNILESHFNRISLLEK
Nature of the data set: IL23R Reporter Assay. In kind it is cell-based. Particulars: HEK293 cells containing IL-23R, IL-12RP1 and STAT-inducible firefly luciferase reporter; 10 ng/mL IL-23 (EC90); 5 h at 37° C.; read-out: IL23R Reporter Assay.

Data set [1] can be described thus: Exposed Polar Surface Area (EPSA). In kind it is physicochemical. Conditions: SFC on Chirex 3014 column, sample 1 mM DMSO stock. A digest of the protocol:
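Retention-based polarity: supercritical CO2 with 20 mM ammonium formate in MeOH (5–60%, 20%/min), Chirex 3014 column, 35 °C. Calibrated against 8 standards to give EPSA (Å^2); each sample measured twice.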

In data set [2] the target is T2, interleukin-23 (IL-23) receptor (Homo sapiens, UniProt Q5VWK5).
T2 construct: Cryopreserved peripheral blood mononuclear cells (PBMCs) from healthy donors were thawed; endogenous in cells; host or cells: cryopreserved PBMCs from healthy donors, expanded 4 days on anti-CD3 with IL-1
T2 sequence (Q5VWK5 24-629): T1 sequence (Q5VWK5 24-629)
Nature of the data set: PBMC pSTAT3 assay. In kind it is cell-based. As to the method: Cryopreserved peripheral blood mononuclear cells (PBMCs) from healthy donors were thawed and washed twice in ImmunoCult-XF T cell expansion medium (XF-TCEM) supplemented with CTL anti-aggregate wash. The cells were counted, resuspended at 2×10^5 cells per mL XF-TCEM supplemented with penicillin/streptomycin and 100 ng/mL IL-1 (BioLegend, 579404), and cultured in tissue culture flasks coated with anti-CD3 (eBioscience, 16-0037-85 or BD Pharmingen, 555329) at 37° C. in 5% CO2. On day 4 of culture, PBMCs were collected, washed twice in RPMI-1640 supplemented with 0.1% BSA (RPMI-BSA), and incubated in RPMI-BSA in upright tissue culture flasks for 4 hours at 37° C. in 5% CO2. Following this ‘starvation,’ a total of 6×10^4 cells in […] RPMI-BSA was transferred into each well of a 384-well plate pre-spotted with peptide or DMSO. The cells were incubated for 30 minutes prior to the addition of IL-23 at a final concentration of 5 ng/mL. The cells were stimulated with cytokine for 30 minutes at 37° C. in 5% CO2, transferred onto ice for 10 minutes, and lysed. Cell lysates were stored at −80° C. until phosphorylated STAT3 was measured using the phospho-STAT panel kit (Meso Scale Discovery, K15202D).

The conditions of data set [3]: disulfide bond, 20-membered ring.

Counter-ions that a name gives are not always drawn. Like-named read-outs stand apart in the source and are kept apart here. Starred links: 1 amine or outer side, 2 acyl side, 3 side chain; linkers in the order of their positions; H or OH if unused. Positions of bridges follow the written chain, without caps; N, C: chain ends. Non-standard residues stand in square brackets, D forms with d. Residues, ends and D or L forms follow the SMILES beside them. *: point of attachment. Me3N+CH2CH2(OCH2CH2)4CO = C[N+](C)(C)CCOCCOCCOCCOCCC(=O)*; Me3N+(CH2)2O(CH2)2O(CH2)2CO = C[N+](C)(C)CCOCCOCCC(=O)*; CH2CH2OCH2CH2OCH2CH2NMe3+ = C[N+](C)(C)CCOCCOCC*; Trp(7-Me) = Cc1cccc2c(C[C@H](N)C(=O)O)c[nH]c12; X1 = CN(CC[C@H](N[*:1])C(=O)[*:2])[*:3]; 2Nal = N[C@@H](Cc1ccc2ccccc2c1)C(=O)O; AEF = NCCOc1ccc(C[C@H](N)C(=O)O)cc1; 3Pal = N[C@@H](Cc1cccnc1)C(=O)O; Lys(Me) = CNCCCC[C@H](N)C(=O)O; Pen = CC(C)(S)[C@H](N)C(=O)O; Thp = NC1(C(=O)O)CCOCC1; X3 = C[N+](C)(C)CCCCC*; Tfa = O=C(C(F)(F)F)*; Sar = CNCC(=O)O

Take `Cc1cccc2c(C[C@@H]3NC(=O)[C@H]([C@@H](C)O)NC(=O)[C@H](CC(N)=O)NC(=O)[C@@H](NC(=O)C(F)(F)F)C(C)(C)SSC(C)(C)[C@@H](C(=O)N[C@@H](Cc4ccc(OCCN)cc4)C(=O)N[C@@H](Cc4ccc5ccccc5c4)C(=O)NC4(C(=O)N[C@@H](CCC(=O)N(C)C)C(=O)N[C@@H](CC(N)=O)C(=O)N[C@@H](Cc5cccnc5)C(=O)N(C)CC(N)=O)CCOCC4)NC(=O)[C@H](CCC(=O)N(C)C)NC3=O)c[nH]c12` [compound 62] (Tfa-[Pen]NT[Trp(7-Me)]E(NMe2)[Pen][AEF][2Nal][Thp]E(NMe2)N[3Pal][Sar]-NH2; disulfide 1-6 (inferred)): the IC50 on IL-23R is 3.2 nM; in data set [2] it was 0.0081 nM. Besides, the EPSA in data set [1] (read-out: EPSA) stood at 160 A^2.
In data set [3] (I2/AcOH, MeCN/H2O, […]), “MeCO-k(Me)3-Pen(3)-N(N(Me)2)-T-7MeW-K(NMeAc)-Pen(3)-AEF(N(Me)2)-2Nal-THP-E-N-3Pya-Sar-CON(Me)2” displayed a ring closure, yield after HPLC of 13.4%.
Regarding `CC(=O)NCCCC[C@@H]1NC(=O)[C@H](Cc2c[nH]c3c(C)cccc23)NC(=O)[C@H]([C@@H](C)O)NC(=O)[C@H](CC(N)=O)NC(=O)[C@@H](NC(C)=O)C(C)(C)SSC(C)(C)[C@@H](C(=O)N[C@@H](Cc2ccc(OCCCCC[N+](C)(C)C)cc2)C(=O)N[C@@H](Cc2ccc3ccccc3c2)C(=O)NC2(C(=O)N[C@@H](CCCCNC(C)=O)C(=O)N[C@@H](CC(N)=O)C(=O)N[C@@H](Cc3cccnc3)C(=O)N(C)CC(N)=O)CCOCC2)NC1=O` [compound 281, MeCO-Pen(3)-N-T-7MeW-K(Ac)-Pen(3)-TMAPF-2Nal-THP-K(Ac)-N-3Pya-Sar-CONH2] (Ac-[Pen]NT[Trp(7-Me)]K(Ac)[Pen]Y(X3)[2Nal][Thp]K(Ac)N[3Pal][Sar]-NH2; disulfide 1-6 (inferred)), the IC50 at IL-23R came to 1.6 nM; in data set [2] it was 0.0075 nM. In addition, the EPSA in data set [1] (read-out: EPSA) stood at 158 A^2.
On to `CC(=O)N(C)CCCC[C@@H]1NC(=O)[C@H](Cc2c[nH]c3c(C)cccc23)NC(=O)[C@H]([C@@H](C)O)NC(=O)[C@H](CC(=O)N(C)C)NC(=O)[C@@H](NC(=O)CCOCCOCC[N+](C)(C)C)C(C)(C)SSC(C)(C)[C@@H](C(=O)N[C@@H](Cc2ccc(OCCCCC[N+](C)(C)C)cc2)C(=O)N[C@@H](Cc2ccc3ccccc3c2)C(=O)NC2(C(=O)N[C@@H](CCCCN(C)C(C)=O)C(=O)N[C@@H](CC(N)=O)C(=O)N[C@@H](Cc3cccnc3)C(=O)N(C)CC(=O)N(C)C)CCOCC2)NC1=O` [compound 164, cPEG3aCO-Pen(3)-N(N(Me)2)-T-7MeW-K(NMeAc)-Pen(3)-TMAPF-2Nal-THP-K(NMeAc)-N-3Pya-Sar-CON(Me)2] ({Me3N+(CH2)2O(CH2)2O(CH2)2CO}-[Pen]D(NMe2)T[Trp(7-Me)][Lys(Me)](Ac)[Pen]Y(X3)[2Nal][Thp][Lys(Me)](Ac)N[3Pal][Sar]-NMe2; disulfide 1-6), for which the EPSA in data set [1] is 144.54 Å^2. The same molecule registered an IC50 in data set [2] of 0.013 nM.
Turning to `Cc1cccc2c(C[C@@H]3NC(=O)[C@H]([C@@H](C)O)NC(=O)[C@H](CC(=O)N(C)C)NC(=O)[C@@H](NC(=O)CCOCCOCCOCCOCC[N+](C)(C)C)C(C)(C)SSC(C)(C)[C@@H](C(=O)N[C@@H](Cc4ccc(OCCN)cc4)C(=O)N[C@@H](Cc4ccc5ccccc5c4)C(=O)NC4(C(=O)N[C@@H](CCC(=O)O)C(=O)N[C@@H](CC(N)=O)C(=O)N[C@@H](Cc5cccnc5)C(=O)N(C)CC(=O)N(C)C)CCOCC4)NC(=O)[C@H](CCN(C)C(=O)CCOCCOCCOCCOCC[N+](C)(C)C)NC3=O)c[nH]c12` [compound 145, cPEG5aCO-Pen(3)-N(N(Me)2)-T-7MeW-Dab(NMecPEG5a)-Pen(3)-AEF-2Nal-THP-E-N-3Pya-Sar-CON(Me)2] ({Me3N+CH2CH2(OCH2CH2)4CO}-[Pen]D(NMe2)T[Trp(7-Me)][X1](Me3N+CH2CH2(OCH2CH2)4CO)[Pen][AEF][2Nal][Thp]EN[3Pal][Sar]-NMe2; disulfide 1-6), the IC50 was found to be 5.7 nM on IL-23R and 0.022 nM in data set [2]. Further, the EPSA in data set [1] (read-out: EPSA) was found to be 158 A^2.
The molecule “cPEG5aCO-Pen(3)-N(N(Me)2)-T-7MeW-Dab(NMecPEG5a)-Pen(3)-AEF-2Nal-THP-E-N-3Pya-Sar-CON(Me)2” came in with a ring closure, yield after HPLC in data set [3] (I2/AcOH, MeCN/H2O, 2.05 mM) of 10%.
The molecule “CF3CO-Pen(3)-N(N(Me)2)-T-7MeW-K(NMeAc)-Pen(3)-AEF-2Nal-THP-K(NMeAc)-N-3Pya-Sar-CON(Me)2” gave a ring closure, yield after HPLC in data set [3] (I2/MeOH, 20% MeCN/H2O, 0.56 mM) of 12.1%.
Take `CC(=O)N(C)CCCC[C@@H]1NC(=O)[C@H](Cc2c[nH]c3c(C)cccc23)NC(=O)[C@H]([C@@H](C)O)NC(=O)[C@H](CC(=O)N(C)C)NC(=O)[C@@H](NC(=O)CCOCCOCC[N+](C)(C)C)C(C)(C)SSC(C)(C)[C@@H](C(=O)N[C@@H](Cc2ccc(OCCOCCOCC[N+](C)(C)C)cc2)C(=O)N[C@@H](Cc2ccc3ccccc3c2)C(=O)NC2(C(=O)N[C@@H](CCCCN(C)C(C)=O)C(=O)N[C@@H](CC(N)=O)C(=O)N[C@@H](Cc3cccnc3)C(=O)N(C)CC(=O)N(C)C)CCOCC2)NC1=O` [compound 181, cPEG3aCO-Pen(3)-N(N(Me)2)-T-7MeW-K(NMeAc)-Pen(3)-APEG3F-2Nal-THP-K(NMeAc)-N-3Pya-Sar-CON(Me)2] ({Me3N+(CH2)2O(CH2)2O(CH2)2CO}-[Pen]D(NMe2)T[Trp(7-Me)][Lys(Me)](Ac)[Pen]Y(CH2CH2OCH2CH2OCH2CH2NMe3+)[2Nal][Thp][Lys(Me)](Ac)N[3Pal][Sar]-NMe2; disulfide 1-6): the IC50 is 2 nM at IL-23R and 0.037 nM in data set [2]. For the same molecule, in data set [1] (read-out: EPSA), the EPSA was 136 A^2.
In the case of `CC(=O)NCCCC[C@H](NC(=O)C1(NC(=O)[C@H](Cc2ccc3ccccc3c2)NC(=O)[C@H](Cc2ccc(OCCN)cc2)NC(=O)[C@H]2NC(=O)[C@H](CCCCN(C)C(C)=O)NC(=O)[C@H](Cc3c[nH]c4c(C)cccc34)NC(=O)[C@H]([C@@H](C)O)NC(=O)[C@H](CC(N)=O)NC(=O)[C@@H](NC(C)=O)C(C)(C)SSC2(C)C)CCOCC1)C(=O)N[C@@H](CC(N)=O)C(=O)N[C@@H](Cc1cccnc1)C(=O)N(C)CC(N)=O` [SEQ ID 57] (Ac-[Pen]NT[Trp(7-Me)][Lys(Me)](Ac)[Pen][AEF][2Nal][Thp]K(Ac)N[3Pal][Sar]-NH2; disulfide 1-6), the figures for the IC50 (on IL-23R; in data set [2]) were around 6290 nM and 0.0076 nM, respectively. For the same molecule, the EPSA amounted to 179.2 Å^2 in data set [1] (listed as 1) and 166 A^2 in data set [1] (read-out: EPSA).

Source of the values: US20260022143A1, “Cyclic Peptide Inhibitors of IL-23” (JANSSEN PHARMACEUTICA NV, priority 2022, published 2026).
